How the values were obtained:
[1] = system: QR activity in Hepa 1c1c7 murine hepatoma cells; experiment: Inducer potential: QR induction in Hepa 1c1c7 microtiter bioassay, myrosinase-treated extracts; assay type: cell-based; conditions: ammonium salts of isolated peaks
Description: Inducer potential or Phase 2 enzyme-inducing potential is a measure of the combined amounts of inducer activity in plant tissue provided by isothiocyanates, plus glucosinolates that can be converted by myrosinase to isothiocyanates. Glucosinolates are not themselves inducers of mammalian Phase 2 enzymes, whereas isothiocyanates are inducers. Inducer potential therefore is defined herein as QR activity in murine 1c1c7 hepatoma cells incubated with myrosinase-treated extracts of the sprouts, seeds or other plant parts. In the present invention therefore inducer potential is measured by means of the murine hepatoma cell bioassay of QR activity in vitro as described above. Inducer potential is measured in Hepa 1c1c7 murine hepatoma cells grown in 96-well microtiter plates. […] Hepatoma cells are grown for 24 hours and a plant extract containing microgram quantities of fresh plant tissue is serially diluted across the microtiter plates into fresh culture medium containing 0.15 ml αMEM culture medium amended with 10% Fetal Calf Serum (FCS) and streptomycin and penicillin. […] QR activity (based on the formation of the blue-brown reduced tetrazolium dye) is measured with an optical microtiter plate scanner in cell lysates prepared in one plate, and related to its protein concentration. Quantitative information on specific activity of QR is obtained by computer analysis of absorbances. […]

[2] = system: QR activity in Hepa 1c1c7 murine hepatoma cells; experiment: Inducer activity: QR induction in Hepa 1c1c7 microtiter bioassay, extracts untreated with myrosinase; assay type: cell-based; conditions: without myrosinase hydrolysis
Description: Inducer activity or Phase 2 enzyme-inducing activity is a measure of the ability of a compound(s) to induce Phase 2 enzyme activity. In the present invention, inducer activity is measured by means of the murine hepatoma cell bioassay of QR activity in vitro. Inducer activity is defined herein as QR inducing activity in Hepa 1c1c7 cells (murine hepatoma cells) incubated with extracts of sprouts, seeds or other plant parts untreated with myrosinase. Inducer activity is measured in Hepa 1c1c7 murine hepatoma cells grown in 96-well microtiter plates. Typically 10,000 Hepa 1c1c7 cells are introduced into each well. Hepatoma cells are grown for 24 hours and a plant extract containing microgram quantities of fresh plant tissue is serially diluted across the microtiter plates into fresh culture medium containing 0.15 ml αMEM culture medium amended with 10% Fetal Calf Serum (FCS) and streptomycin and penicillin. The cells are further incubated for 48 hours. QR activity (based on the formation of the blue-brown reduced tetrazolium dye) is measured with an optical microtiter plate scanner in cell lysates prepared in one plate, and related to its protein concentration. Quantitative information on specific activity of QR is obtained by computer analysis of the absorbances. One unit of inducer activity is the amount that when added to a single microtiter well doubles the QR activity. […]

[3] = system: QR activity in Hepa 1c1c7 murine hepatoma cells; conditions: reported values, cited from earlier work

SMILES	Inducer potency after myrosinase hydrolysis [1]	Inducer activity of isolated PIC peaks [2]	Inducer potency corresponding to reported CD value ([3]; Hepa 1c1c7)	CD value (concentration required to double QR specific activity) ([3]; Hepa 1c1c7 murine hepatoma cells) [µM]
C[S+]([O-])CCCC/C(=N\OS(=O)(=O)O)S[C@@H]1O[C@H](CO)[C@@H](O)[C@H](O)[C@H]1O (single isomer, unassigned; peak a) [Peak A, 4-methylsulfinylbutyl glucosinolate]	36,100 units/μmol	no significant inducer activity	–	–
C[S+]([O-])CCCCN=C=S (stereo not drawn) [sulforaphane]	–	–	33,333 units/μmol	0.2
CSCCCCC(=NOS(=O)(=O)O)S[C@@H]1O[C@H](CO)[C@@H](O)[C@H](O)[C@H]1O (single isomer, unassigned; peak c) [Peak C, 4-methythiobutyl glucosinolate]	4,360 units/μmol	no significant inducer activity	–	–
